According to patent US6992079B2, “Substituted 11-phenyl-dibenzazepine compounds useful for the treatment or prevention of diseases characterized by abnormal cell proliferation” (President Fellows of Harvard College, priority 1997, dated 2006):
Read-outs that look alike come from different tables or passages of the source. Marks after values point to notes of the source that are not given here.

Assays:
ROP-92 = assay type: cell-based
A498 = experiment: In-Vitro Testing SRB panel: Renal Cancer; assay type: cell-based; conditions: A498
MDA-MB-23 = experiment: SRB antiproliferative assay; assay type: cell-based; conditions: Homo sapiens; MDA-MB-23 (Breast); SRB; 5% FCS/5 day incubation; read-out: IC50
Source text: (§1) The cells were passaged using Trypsin (Gibco).

MMRU = experiment: SRB antiproliferative assay; assay type: cell-based; conditions: Homo sapiens, MMRU (Melanoma), 5% FCS/5 day incubation
Source text: as §1

IGROV1 = experiment: In-Vitro Testing SRB panel: Ovarian Cancer; assay type: cell-based
OVCAR-8 = experiment: In-Vitro Testing SRB panel: Ovarian Cancer; assay type: cell-based; conditions: OVCAR-8
SF-268 = experiment: In-Vitro Testing SRB panel: CNS Cancer; assay type: cell-based; conditions: SF-268
[1] = Preliminary toxicology, subcutaneous injection for 14 days; assay type: in vivo, CD-1 female mice; conditions: CD-1 female mice; 80 mg/kg/day s.c. 14 days
Protocol: The toxicological effects of CLT, and compounds 28, 30 and 31 were tested in CD-1 female mice. A dose of 80 mg/kg/day was given to each mouse via subcutaneous injection for a period of 14 days. Preliminary toxicological data was determined by measuring body weight, gross pathology of organs blood chemistry and histology. The vehicle used was DMF 12%+2% Tween 20 88%.

M14 = experiment: In-Vitro Testing SRB panel: Melanoma; assay type: cell-based; conditions: M14
SK-OV-3 = experiment: In-Vitro Testing SRB panel: Ovarian Cancer; assay type: cell-based; conditions: SK-OV-3
RXF 393 = experiment: In-Vitro Testing SRB panel: Renal Cancer; assay type: cell-based; conditions: RXF 393
RL-60 (TS) = experiment: In-Vitro Testing SRB panel: Leukemia; assay type: cell-based
UACC-257 = experiment: In-Vitro Testing SRB panel: Melanoma; assay type: cell-based; conditions: UACC-257
NCI-H226 = assay type: cell-based; conditions: NCI-H226
MDA-MB-231/ATCC = experiment: In-Vitro Testing SRB panel: Breast Cancer; assay type: cell-based; conditions: MDA-MB-231/ATCC
SN12C = experiment: In-Vitro Testing SRB panel: Renal Cancer; assay type: cell-based
[2] = Homo sapiens, read-out: LC50 (the source's name)

SMILES: COc1cccc2c1C(c1ccccc1Cl)c1cc(Cl)ccc1N(C(=O)c1ccc([N+](=O)[O-])cc1)C2 (stereo not shown) [Compound 31]
- GI50 (ROP-92; Homo sapiens): 5.53 µM
- CC50 (ROP-92; Homo sapiens, ROP-92, read-out: LC50 (the source's name)): > 100 µM
- TGI (ROP-92; ROP-92): >1.00E−04 Molar
- Percent Growth (ROP-92; ROP-92, log10 conc -4 Molar): 27%
- Percent Growth (ROP-92; ROP-92, log10 conc -5 Molar): 42%
- Percent Growth (ROP-92; ROP-92, log10 conc -6 Molar): 74%
- Percent Growth (ROP-92; ROP-92, log10 conc -7 Molar): 88%
- Percent Growth (ROP-92; ROP-92, log10 conc -8 Molar): 89%
- TGI (A498): 6.86E−06 Molar
- Percent Growth (A498; log10 conc -4 Molar): −32%
- Percent Growth (A498; log10 conc -5 Molar): −11%
- Percent Growth (A498; log10 conc -6 Molar): 55%
- Percent Growth (A498; log10 conc -7 Molar): 93%
- Percent Growth (A498; log10 conc -8 Molar): 93%
- GI50 (A498; Homo sapiens): 1.19 µM
- CC50 (A498; [2]): > 100 µM
- IC50 (MDA-MB-23): 0.4 µM
- IC50 (MMRU): 0.2 µM
- TGI (ERVX; ERVX): >1.00E−04 Molar
- Percent Growth (ERVX; ERVX, log10 conc -4 Molar): 7%
- Percent Growth (ERVX; ERVX, log10 conc -5 Molar): 27%
- Percent Growth (ERVX; ERVX, log10 conc -6 Molar): 80%
- Percent Growth (ERVX; ERVX, log10 conc -7 Molar): 103%
- Percent Growth (ERVX; ERVX, log10 conc -8 Molar): 100%
- GI50 (ERVX; Homo sapiens): 3.65 µM
- CC50 (ERVX; Homo sapiens, read-out: LC50): > 100 µM
- GI50 (IGROV1; Homo sapiens, IGROV-1): 2.13 µM
- CC50 (IGROV1; Homo sapiens, IGROV-1, IGROV1, read-out: LC50 (the source's name)): > 100 µM
- TGI (IGROV1; IGROV1): >1.00E−04 Molar
- Percent Growth (IGROV1; IGROV1, log10 conc -4 Molar): 29%
- Percent Growth (IGROV1; IGROV1, log10 conc -5 Molar): 35%
- Percent Growth (IGROV1; IGROV1, log10 conc -6 Molar): 57%
- Percent Growth (IGROV1; IGROV1, log10 conc -7 Molar): 80%
- Percent Growth (IGROV1; IGROV1, log10 conc -8 Molar): 94%
- GI50 (OVCAR-8; Homo sapiens): 5.3 µM
- CC50 (OVCAR-8; [2]): > 100 µM
- TGI (OVCAR-8): >1.00E−04 Molar
- Percent Growth (OVCAR-8; log10 conc -4 Molar): 29%
- Percent Growth (OVCAR-8; log10 conc -5 Molar): 38%
- Percent Growth (OVCAR-8; log10 conc -6 Molar): 82%
- Percent Growth (OVCAR-8; log10 conc -7 Molar): 94%
- Percent Growth (OVCAR-8; log10 conc -8 Molar): 99%
- GI50 (SF-268; Homo sapiens): 5.28 µM
- CC50 (SF-268; [2]): > 100 µM
- TGI (SF-268): >1.00E−04 Molar
- Percent Growth (SF-268; log10 conc -4 Molar): 46%
- Percent Growth (SF-268; log10 conc -5 Molar): 47%
- Percent Growth (SF-268; log10 conc -6 Molar): 59%
- Percent Growth (SF-268; log10 conc -7 Molar): 105%
- Percent Growth (SF-268; log10 conc -8 Molar): 94%
- Body Weight Change [1]: 113%
- Liver Weight [1]: 1.49 ± 0.04^c g
- RBC [1]: 8.6 ± 1.6 10^6/mm^3
- WBC [1]: 7.2 ± 1.7 10^3/mm^3
- WBC, RBC, BUN and creatine levels [1]: no differences were found
- GI50 (M14; Homo sapiens): 1.22 µM
- CC50 (M14; [2]): > 100 µM
- TGI (M14): >1.00E−04 Molar
- Percent Growth (M14; log10 conc -4 Molar): 21%
- Percent Growth (M14; log10 conc -5 Molar): 30%
- Percent Growth (M14; log10 conc -6 Molar): 52%
- Percent Growth (M14; log10 conc -7 Molar): 93%
- Percent Growth (M14; log10 conc -8 Molar): 92%
- GI50 (SK-OV-3; Homo sapiens): > 100 µM
- CC50 (SK-OV-3; [2]): > 100 µM
- TGI (SK-OV-3): >1.00E−04 Molar
- Percent Growth (SK-OV-3; log10 conc -4 Molar): 63%
- Percent Growth (SK-OV-3; log10 conc -5 Molar): 85%
- Percent Growth (SK-OV-3; log10 conc -6 Molar): 88%
- Percent Growth (SK-OV-3; log10 conc -7 Molar): 102%
- Percent Growth (SK-OV-3; log10 conc -8 Molar): 97%
- GI50 (RXF 393; Homo sapiens): 13.1 µM
- CC50 (RXF 393; [2]): > 100 µM
- TGI (RXF 393): >1.00E−04 Molar
- Percent Growth (RXF 393; log10 conc -4 Molar): 39%
- Percent Growth (RXF 393; log10 conc -5 Molar): 52%
- Percent Growth (RXF 393; log10 conc -6 Molar): 81%
- Percent Growth (RXF 393; log10 conc -7 Molar): 96%
- Percent Growth (RXF 393; log10 conc -8 Molar): 96%
- GI50 (RL-60 (TS); Homo sapiens): 0.512 µM
- CC50 (RL-60 (TS); Homo sapiens, RL-60 (TB), read-out: LC50 (the source's name)): > 100 µM
- TGI (RL-60 (TS); RL-60 (TB)): 1.28E−05 Molar
- Percent Growth (RL-60 (TS); RL-60 (TB), log10 conc -4 Molar): −19%
- Percent Growth (RL-60 (TS); RL-60 (TB), log10 conc -5 Molar): 3%
- Percent Growth (RL-60 (TS); RL-60 (TB), log10 conc -6 Molar): 39%
- Percent Growth (RL-60 (TS); RL-60 (TB), log10 conc -7 Molar): 77%
- Percent Growth (RL-60 (TS); RL-60 (TB), log10 conc -8 Molar): 81%
- GI50 (UACC-257; Homo sapiens): 0.94 µM
- CC50 (UACC-257; [2]): > 100 µM
- TGI (UACC-257): >1.00E−04 Molar
- Percent Growth (UACC-257; log10 conc -4 Molar): 7%
- Percent Growth (UACC-257; log10 conc -5 Molar): 27%
- Percent Growth (UACC-257; log10 conc -6 Molar): 49%
- Percent Growth (UACC-257; log10 conc -7 Molar): 91%
- Percent Growth (UACC-257; log10 conc -8 Molar): 98%
- GI50 (NCI-H226; Homo sapiens): 3.67 µM
- CC50 (NCI-H226; [2]): > 100 µM
- TGI (NCI-H226): >1.00E−04 Molar
- Percent Growth (NCI-H226; log10 conc -4 Molar): 13%
- Percent Growth (NCI-H226; log10 conc -5 Molar): 34%
- Percent Growth (NCI-H226; log10 conc -6 Molar): 71%
- Percent Growth (NCI-H226; log10 conc -7 Molar): 90%
- Percent Growth (NCI-H226; log10 conc -8 Molar): 90%
- CC50 (MDA-MB-231/ATCC; [2]): > 100 µM
- TGI (MDA-MB-231/ATCC): >1.00E−04 Molar
- Percent Growth (MDA-MB-231/ATCC; log10 conc -4 Molar): 56%
- Percent Growth (MDA-MB-231/ATCC; log10 conc -5 Molar): 49%
- Percent Growth (MDA-MB-231/ATCC; log10 conc -6 Molar): 38%
- Percent Growth (MDA-MB-231/ATCC; log10 conc -7 Molar): 50%
- Percent Growth (MDA-MB-231/ATCC; log10 conc -8 Molar): 90%
- TGI (SN12C): >1.00E−04 Molar
- GI50 (SN12C; Homo sapiens): 6.93 µM
- CC50 (SN12C; [2]): > 100 µM
- Percent Growth (SN12C; log10 conc -4 Molar): 30%
- Percent Growth (SN12C; log10 conc -5 Molar): 43%
- Percent Growth (SN12C; log10 conc -6 Molar): 85%
- Percent Growth (SN12C; log10 conc -7 Molar): 101%
- Percent Growth (SN12C; log10 conc -8 Molar): 94%
